The values below come from BindingDB's records for doi:10.1021/acsmedchemlett.5b00177 (Dart Neuroscience, 2015).

In general, IC50 refers to the concentration needed to halve the response being measured. Lower therefore signals greater potency in that assay.

In the experiment the target is Methionine aminopeptidase 2 (Homo sapiens) (UniProt P50579). In words: Inhibition of human METAP2 using Met-Pro-Arg-pNa substrate by para-nitroanilide chromophore release detection assay.
Chain of Methionine aminopeptidase 2 (Homo sapiens) (P50579 whole entry, looked up): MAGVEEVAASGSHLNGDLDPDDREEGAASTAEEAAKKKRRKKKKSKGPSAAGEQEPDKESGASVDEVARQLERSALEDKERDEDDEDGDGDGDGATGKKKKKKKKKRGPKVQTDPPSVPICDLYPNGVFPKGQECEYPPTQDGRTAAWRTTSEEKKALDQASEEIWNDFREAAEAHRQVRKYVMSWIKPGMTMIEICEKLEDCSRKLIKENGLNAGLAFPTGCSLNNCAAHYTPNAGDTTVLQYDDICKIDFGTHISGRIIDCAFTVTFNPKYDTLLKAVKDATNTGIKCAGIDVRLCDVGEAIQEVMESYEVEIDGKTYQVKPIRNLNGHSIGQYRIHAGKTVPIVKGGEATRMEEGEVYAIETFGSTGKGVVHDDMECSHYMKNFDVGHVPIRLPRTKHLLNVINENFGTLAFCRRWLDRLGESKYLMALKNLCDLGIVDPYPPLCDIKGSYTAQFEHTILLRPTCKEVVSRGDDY

In the case of `O=c1c2cn[nH]c2c2cnc(-c3ncccc3Cl)cc2n1CC(F)(F)F`, the IC50 stood at 13 µM.
For the molecule `CN1CCN(c2ccc(-c3cnc4c5[nH]ncc5c(=O)n(CC(F)(F)F)c4c3)cn2)CC1`, the IC50 turned out to be 5 µM.
`O=c1c2cn[nH]c2c2ncc(-c3ccccc3C(F)(F)F)cc2n1CC(F)(F)F` came in with an IC50 of 20 µM. This IC50 lies about 4-fold higher than the previous one.
For the molecule `CN1CCN(c2cncc(-c3cnc4c5[nH]ncc5c(=O)n(CC(F)(F)F)c4c3)c2)CC1`, half-maximal inhibition (IC50) required 24 µM.
